Like-named read-outs stand apart in the source and are kept apart here.
Key:
IL-1β = assay: PBMC assay: IL-1β release after LPS stimulation; assay type: cell-based; conditions: human PBMCs, 30 min compound, 100 ng/ml LPS for 6 hrs, MSD, read-out: IL1β AC50
Description: The activity of a compound according to the present invention can be assessed by in vitro methods.
(§1) Peripheral venous blood was collected from healthy individuals and human peripheral blood mononuclear cells (PBMCs) were isolated from blood by Ficoll-Histopaque (Sigma-Aldrich, A0561) density gradient centrifugation. After isolation, PBMCs were stored in liquid nitrogen for later use. Upon thawing, PBMC cell viability was determined in growth medium (RPMI media supplemented with 10% fetal bovine serum, 1% Pen-Strep and 1% L-glutamine). Compounds were spotted in a 1:3 serial dilution in DMSO and diluted to the final concentration in 30 μl medium in 96 well plates (Falcon, 353072). PBMCs were added at a density of 7.5×10^4 cells per well and incubated for 30 min in a 5% CO2 incubator at 37° C. LPS stimulation was performed by addition of 100 ng/ml LPS (final concentration, Invivogen, tlrl-smlps) for 6 hrs followed by collection of cellular supernatant and the analysis of IL-1β (μM) and TNF cytokines levels (μM) via MSD technology according to manufacturers' guidelines (MSD, K151A0H).
(§2) IC50 and AC50 values (for […]) and EC50 and AC50 values (TNF) were obtained on compounds of the invention/examples, and the AC50 values are depicted in the following table: […]

TNF = assay: PBMC assay: TNF cytokine level after LPS stimulation; assay type: cell-based; conditions: human PBMCs, 30 min compound, 100 ng/ml LPS for 6 hrs, MSD
Description: as §1, §2

SMILES | AC50 (IL-1β; PBMC) | AC50 (TNF; PBMC) | AC50 (IL-1β) | AC50 (TNF)
CC(C)COc1c(C(C)C)nn(CC(=O)Nc2ccc3nncn3c2)c(=O)c1F [Compound 61] | 0.16 µM | > 20 µM |  | 
CC(C)COc1c(C(C)C)nn(CC(=O)Nc2ccc3nncn3n2)c(=O)c1C(F)F [Compound 62] | 0.18 µM | 3.75 µM |  | 
Cc1nccc(NC(=O)Cn2nc(C(C)C)c(OCC(C)C)cc2=O)c1F [Compound 63] | 0.19 µM | > 20 µM |  | 
CC(C)c1nn(CC(=O)Nc2ccc3nncn3c2)c(=O)cc1OCC1(F)CC1 [Compound 64] | 0.2 µM | > 20 µM |  | 
Cc1cc(NC(=O)Cn2nc(C(C)C)c(OCC(C)C)cc2=O)ccn1 [Compound 65] | 0.21 µM | > 20 µM |  | 
CC(C)COc1cc(=O)n(CC(=O)NC23CC(C#N)(C2)C3)nc1C(C)C [Compound 66] | 0.22 µM | > 20 µM |  | 
CC(C)COc1cc(=O)n(CC(=O)NC23CCC(C(=O)O)(CC2)CC3)nc1C(C)C [Compound 67] | 0.24 µM | > 20 µM |  | 
Cc1c(OCC(C)C)c(C(C)C)nn(CC(=O)Nc2ccc3nccn3n2)c1=O [Compound 68] | 0.24 µM | > 20 µM |  | 
CC(C)COc1cc(=O)n(CC(=O)Nc2nc3ccc(F)cn3n2)nc1C(C)C [Compound 69] | 0.25 µM | > 20 µM |  | 
CC(C)COc1cc(=O)n(CC(=O)Nc2ccc3nncn3c2)nc1N(C)C [Compound 70] | 0.26 µM | > 20 µM |  | 
COC(=O)CC12CC(NC(=O)Cn3nc(C(C)C)c(OCC(C)C)cc3=O)(C1)C2 [Compound 71, methyl 2-(3-(2-(4-isobutoxy-3-isopropyl-6-oxopyridazin-1(6H)-yl)acetamido)bicyclo[1.1.1]pentan-1-yl)acetate] | 0.26 µM | > 20 µM |  | 
CC(C)c1nn(CC(=O)Nc2ccc3nncn3n2)c(=O)c(Cl)c1OCC(F)(F)F [Compound 72] | 0.27 µM | 16.6 µM |  | 
Cc1c(OCC(C)C)c(C(C)C)nn(CC(=O)Nc2ccncc2)c1=O [Compound 73] | 0.33 µM | > 20 µM |  | 
CC(C)c1nn(CC(=O)Nc2ccc3nncn3c2)c(=O)c(Cl)c1OCC1CC1 [Compound 74] | 0.36 µM | > 20 µM |  | 
CC(C)COc1cc(=O)n(CC(=O)NC23CCC(N)(CC2)C3)nc1C(C)C [Compound 75, N-((1r,4r)-4-aminobicyclo[2.2.1]heptan-1-yl)-2-(4-isobutoxy-3-isopropyl-6-oxopyridazin-1(6H)-yl)acetamide] | 0.36 µM | > 20 µM |  | 
CN(C)c1nn(CC(=O)Nc2ccc3nncn3n2)c(=O)cc1OCC1CC1 [Compound 76] | 0.37 µM | > 20 µM |  | 
CC(C)COc1cc(=O)n(CC(=O)Nc2nc3ncccn3n2)nc1C(C)C [Compound 77] | 0.4 µM | > 20 µM |  | 
CCCS(=O)(=O)C12CC(NC(=O)Cn3nc(C(C)C)c(OCC(C)C)cc3=O)(C1)C2 [Compound 78, 2-(4-isobutoxy-3-isopropyl-6-oxopyridazin-1(6H)-yl)-N-(3-(propylsulfonyl)bicyclo[1.1.1]pentan-1-yl)acetamide] | 0.42 µM | > 20 µM |  | 
CC(C)COc1cc(=O)n(CC(=O)NC23CC(CO)(C2)C3)nc1C(C)C [Compound 79] | 0.43 µM | > 20 µM |  | 
COc1ccn2nc(NC(=O)Cn3nc(C(C)C)c(OCC(C)C)cc3=O)nc2c1 [Compound 80] |  |  | 0.45 µM | > 20 µM
CCN1CC[C@]12C[C@H](NC(=O)Cn1nc(C(C)C)c(OCC(C)C)cc1=O)C2 [Compound 81, N-((4s,6r)-1-ethyl-1-azaspiro[3.3]heptan-6-yl)-2-(4-isobutoxy-3-isopropyl-6-oxopyridazin-1(6H)-yl)acetamide] | 0.48 µM | > 20 µM |  | 
CC(C)COc1cc(=O)n(CC(=O)NC23CC(O)(C2)C3)nc1C(C)C [Compound 82] | 0.5 µM | > 20 µM |  | 
CC(C)COc1cc(=O)n(CC(=O)NC23CC(C(F)F)(C2)C3)nc1C(C)C [Compound 83] | 0.51 µM | > 20 µM |  | 
CCCOc1c(C(C)C)nn(CC(=O)Nc2ccc3nncn3c2)c(=O)c1Cl [Compound 84] | 0.63 µM | 19.4 µM |  | 
CC(C)COc1cc(=O)n(CC(=O)NC23CC(C(C)(C)O)(C2)C3)nc1C(C)C [Compound 85, N-(3-(2-hydroxypropan-2-yl)bicyclo[1.1.1]pentan-1-yl)-2-(4-isobutoxy-3-isopropyl-6-oxopyridazin-1(6H)-yl)acetamide] | 0.65 µM | > 20 µM |  | 
CC(C)COc1cc(=O)n(CC(=O)NC23CCC(N)(C2)C3)nc1C(C)C [Compound 86] | 0.66 µM | > 20 µM |  | 

SMILES | AC50 (IL-1β; PBMC) | AC50 (TNF; PBMC) | AC50 (IL-1β) | AC50 (TNF)
CC(C)COc1cc(=O)n(CC(=O)Nc2nc3cc(C(F)(F)F)ccn3n2)nc1C(C)C [Compound 87] | 0.66 µM | > 20 µM |  | 
CC(C)COc1cc(=O)n(CC(=O)NC23CCC(O)(CC2)CC3)nc1C(C)C [Compound 88] | 0.66 µM | > 20 µM |  | 
CC(C)COc1cc(=O)n(CC(=O)N[C@H]2C[C@]3(CCN3C)C2)nc1C(C)C [Compound 89, 2-(4-isobutoxy-3-isopropyl-6-oxopyridazin-1(6H)-yl)-N-((4s,6r)-1-methyl-1-azaspiro[3.3]heptan-6-yl)acetamide] | 0.67 µM | > 20 µM |  | 
Cc1noc(C23CC(NC(=O)Cn4nc(C(C)C)c(OCC(C)C)cc4=O)(C2)C3)n1 [Compound 90, 2-(4-isobutoxy-3-isopropyl-6-oxopyridazin-1(6H)-yl)-N-(3-(3-methyl-1,2,4-oxadiazol-5-yl)bicyclo[1.1.1]pentan-1-yl)acetamide] | 0.68 µM | > 20 µM |  | 
Cc1ccn2nc(NC(=O)Cn3nc(C(C)C)c(OCC(C)C)cc3=O)nc2c1 [Compound 91] | 0.69 µM | > 20 µM |  | 
CC(C)COc1cc(=O)n(CC(=O)NC23CC(C)(C2)C3)nc1C(C)C [Compound 92] | 0.71 µM | > 20 µM |  | 
CC(C)c1nn(CC(=O)Nc2ccc3nncn3c2)c(=O)c(Cl)c1OCC(C)(F)F [Compound 93] | 0.77 µM | 8.92 µM |  | 
CC(C)COc1cc(=O)n(CC(=O)NC23CC(N4CCOCC4)(C2)C3)nc1C(C)C [Compound 94] | 0.78 µM | > 20 µM |  | 
CN(C)c1nn(CC(=O)Nc2ccc3nncn3n2)c(=O)cc1OCC(F)(F)F [Compound 95] | 0.79 µM | 18.2 µM |  | 
CC(C)COc1cc(=O)n(CC(=O)NC2(CC(=O)O)CCCC2)nc1C(C)C [Compound 96] |  |  | 0.87 µM | > 20 µM
CC(C)COc1cc(=O)n(CC(=O)Nc2cn3ccncc3n2)nc1C(C)C [Compound 97] | 0.95 µM | 5.01 µM |  | 
CC(C)COc1cc(=O)n(CC(=O)NC23CC(C4=NN(C)C(=O)C4)(C2)C3)nc1C(C)C [Compound 98, 2-(4-isobutoxy-3-isopropyl-6-oxopyridazin-1(6H)-yl)-N-(3-(1-methyl-5-oxo-4,5-dihydro-1H-pyrazol-3-yl)bicyclo[1.1.1]pentan-1-yl)acetamide] | 0.96 µM | > 20 µM |  | 
CC(C)COc1cc(=O)n(CC(=O)NC23CCC(N)(CC2)CC3)nc1C(C)C [Compound 99] | 0.97 µM | > 20 µM |  | 
CC(C)COc1cc(=O)n(CC(=O)Nc2cn3cccnc3n2)nc1C(C)C [Compound 100] | 1 µM | 4.81 µM |  | 
CC(C)COc1cc(=O)n(CC(=O)NC23CC(S(C)(=O)=O)(C2)C3)nc1C(C)C [Compound 101] | 1.02 µM | > 20 µM |  | 
CC(C)c1nn(CC(=O)Nc2ccc3nncn3n2)c(=O)cc1OCCC(F)(F)F [Compound 102] | 1.06 µM | > 20 µM |  | 
CC(C)COc1cc(=O)n(CC(=O)Nc2cc3ncccn3n2)nc1C(C)C [Compound 103] | 1.1 µM | > 20 µM |  | 
CC(C)COc1cc(=O)n(CC(=O)NC23CCC(C(=O)O)(CC2)C3)nc1C(C)C [Compound 104] | 1.12 µM | > 20 µM |  | 
CC(C)COc1cc(=O)n(CC(=O)NC23CC(F)(C2)C3)nc1C(C)C [Compound 105] | 1.21 µM | > 20 µM |  | 
CN(C)c1nn(CC(=O)Nc2ccc3nncn3c2)c(=O)cc1OCC(F)(F)F [Compound 106] | 1.21 µM | > 20 µM |  | 
CC(C)COc1cc(=O)n(CC(=O)NC23CC(C(N)C(F)(F)F)(C2)C3)nc1C(C)C (centres unmarked) [Compound 107] | 1.31 µM | > 20 µM |  | 
CC(C)COc1cc(=O)n(CC(=O)Nc2ccc3nncn3n2)nc1OCC(C)C [Compound 108] | 1.33 µM | > 20 µM |  | 
CNC(C(F)(F)F)C12CC(NC(=O)Cn3nc(C(C)C)c(OCC(C)C)cc3=O)(C1)C2 (centres unmarked) [Compound 109] | 1.35 µM | > 20 µM |  | 
CC(C)COc1cc(=O)n(CC(=O)NC23CC(C2)C3)nc1C(C)C [Compound 110] | 1.44 µM | > 20 µM |  | 
COCC12CC(NC(=O)Cn3nc(C(C)C)c(OCC(C)C)cc3=O)(C1)C2 [Compound 111] | 1.47 µM | > 20 µM |  | 
CC(C)COc1cc(=O)n(CC(=O)NC23CC(CS(C)(=O)=O)(C2)C3)nc1C(C)C [Compound 112] | 1.55 µM | > 20 µM |  | 

From patent US20240109905A1, “4-ALKOXY-6-OXO-PYRIDAZINE DERIVATIVES MODULATING NLRP3” (JANSSEN PHARMACEUTICA NV, priority 2021, published 2024)
